Assay results: paper PMC12348509, “Classical Paal-Knorr Cyclization for Synthesis of Pyrrole-Based Aryl Hydrazones and In Vitro/In Vivo Evaluation on Pharmacological Models of Parkinson’s Disease” (Molecules, 2025)

What was measured:
[1] = target: T1, human recombinant MAOB enzyme (hMAOB) (Homo sapiens, UniProt P27338); assay: Human recombinant MAOB enzyme activity (Amplex Red, fluorimetric); format: biochemical; settings: for inhibition at 1 µM: read-out: hMAOB inhibitory effect (decrease of enzyme activity); for IC50: read-out: IC50 (EC50), (µM ± SD) hMAOB
T1 construct: purchased
T1 sequence (P27338 1-520): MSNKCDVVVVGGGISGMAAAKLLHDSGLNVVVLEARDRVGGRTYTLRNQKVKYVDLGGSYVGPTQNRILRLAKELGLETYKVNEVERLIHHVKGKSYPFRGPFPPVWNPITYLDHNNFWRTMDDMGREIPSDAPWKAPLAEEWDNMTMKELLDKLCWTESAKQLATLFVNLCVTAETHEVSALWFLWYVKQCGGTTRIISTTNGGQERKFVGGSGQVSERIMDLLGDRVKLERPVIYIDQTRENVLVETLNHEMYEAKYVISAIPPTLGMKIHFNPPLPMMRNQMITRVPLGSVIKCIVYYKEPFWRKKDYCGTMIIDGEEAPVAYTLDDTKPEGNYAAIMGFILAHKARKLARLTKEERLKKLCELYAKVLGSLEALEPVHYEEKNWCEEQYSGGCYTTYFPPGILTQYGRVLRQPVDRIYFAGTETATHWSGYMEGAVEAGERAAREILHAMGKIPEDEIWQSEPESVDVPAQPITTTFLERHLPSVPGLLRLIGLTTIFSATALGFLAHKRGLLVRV
Procedure: (§1) Working solutions of the test substances, reagents, and human recombinant MAOA/B enzyme (hMAOA/B) were prepared in a reaction buffer according to the manufacturer’s instructions. The substances were applied at a final concentration of 1 µM. The substances, together with hMAOA/B, were placed in a 96-well plate (eight samples for each substance), and the plate was placed in an incubator for 30 min (in the dark, at 37 °C). The activity of recombinant human MAOA/B was determined fluorimetrically at two wavelengths (570 nm and 690 nm) with fluorimetric readings performed in a Synergy 2 Microplate Reader. Tyramine hydrochloride was used as the substrate. The activity was determined by detecting H2O2 production. This production is reported by binding to horseradish peroxidase using N-acetyl-3,7-dihydroxyphenoxazine (AmplexRed, Thermo Fisher Scientific, Waltham, MA, USA).

rat brain microsomes [2] = settings: 100 µM combined with Fe2+/AA
rat brain mitochondria [3] = assay: MDA production in brain mitochondria, substances applied alone; format: cell-based; settings: 100 µM, vs untreated mitochondria
Procedure: To the mitochondria, 0.3 mL of 0.2% thiobarbituric acid and 0.25 mL of sulfuric acid (0.05 M) were added, and the mixture was boiled for 30 min. After boiling, the tubes were placed on ice, and 0.4 mL of n-butanol was added to each tube, which was then centrifuged at 3500× g for 10 min. The amount of MDA was determined spectrophotometrically at 532 nm.

rat brain mitochondria [4] = assay: GSH level in brain mitochondria, substances applied alone; settings: 100 µM, vs untreated mitochondria
rat brain microsomes [5] = assay: MDA production in brain microsomes, substances applied alone; format: cell-based; settings: 100 µM, vs untreated microsomes
Procedure: The brain was homogenized in nine volumes of 0.1 M Tris buffer containing 0.1 mM dithiothreitol, 0.1 mM phenylmethylsulfonyl fluoride, 0.2 mM EDTA, 1.15% KCl, and 20% (v/v) glycerol (pH 7.4). The resulting homogenate was centrifuged twice at 17,000× g for 30 min. The supernatants from the two centrifugations were pooled and centrifuged twice at 100,000× g for 1 h. The pellet was then frozen in 0.1 M Tris buffer.

[6] = target: T2, human recombinant MAOA enzyme (hMAOA) (Homo sapiens, UniProt P21397); assay: Human recombinant MAOA enzyme activity (Amplex Red, fluorimetric); format: biochemical; settings: for IC50: read-out: IC50 (EC50), (µM ± SD) hMAOA
T2 construct: purchased
T2 sequence (P21397 1-527): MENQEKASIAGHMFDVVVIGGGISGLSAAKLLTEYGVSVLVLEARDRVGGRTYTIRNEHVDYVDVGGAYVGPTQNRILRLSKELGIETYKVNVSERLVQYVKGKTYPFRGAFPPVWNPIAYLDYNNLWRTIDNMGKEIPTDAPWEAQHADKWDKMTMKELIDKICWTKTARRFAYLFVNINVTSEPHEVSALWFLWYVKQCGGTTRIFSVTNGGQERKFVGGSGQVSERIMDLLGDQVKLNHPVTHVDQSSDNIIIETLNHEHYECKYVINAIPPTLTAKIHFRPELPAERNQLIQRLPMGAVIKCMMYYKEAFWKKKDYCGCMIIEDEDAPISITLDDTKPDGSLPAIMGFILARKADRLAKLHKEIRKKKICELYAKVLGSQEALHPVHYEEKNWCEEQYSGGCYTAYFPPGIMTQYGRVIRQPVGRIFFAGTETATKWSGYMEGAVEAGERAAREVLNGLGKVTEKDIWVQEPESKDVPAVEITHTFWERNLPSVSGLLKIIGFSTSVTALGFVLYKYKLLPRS
Procedure: as §1

rat brain mitochondria [7] = settings: 100 µM combined with t-BuOOH
[8] = system: Rotenone-induced model of Parkinsonism in mice; assay: Rotenone-induced model of Parkinsonism in mice, brain histopathology (H&E); format: in vivo
Procedure: The histological morphology of the mouse brains, mainly the areas of the […] and cerebellum, was examined microscopically.
The samples from mouse brains were fixed in 10% buffered neutral formalin solution. The fixed materials were dehydrated in ascending grades of alcohol: 50°, 60°, 70°, 80°, 90°, 96°, and absolute alcohol. After dehydration, the samples were cleared with xylene and embedded in paraffin blocks. Sections with a thickness of 5 μm were prepared using a rotary microtome. The sections were attached to slides using histological glue, processed with xylene, rehydrated using a descending alcohol row–absolute alcohol, 96°, 90°, 80°, 70°, 60°, and 50°, and finally stained with Hematoxylin-Eosin [57]. Microscopic examination and photography were performed using a Levenhuk D740T light microscope with an integrated camera.

MAOB = system: MAOB; design: method as in PMID 36500572; settings: 1 μmol; cited from earlier work
[9] = 150 µM, vs untreated synaptosomes
[10] = 100 µM with 6-OHDA 150 µM, compared to the toxic agent

| increase of MDA production in brain mitochondria vs control (rat brain mitochondria [3]) [%] | decrease of GSH level in brain mitochondria vs control (rat brain mitochondria [4]) [%] | increase of MDA production in brain microsomes vs control (rat brain microsomes [5]) [%] | SMILES | further results |
| --- | --- | --- | --- | --- |
| – | – | – | NCCc1cc(O)c(O)cc1O [6-OHDA, 6-hydroxydopamine, reference compound] | decrease of GSH level in synaptosomes by the toxic agent alone (rat brain synaptosomes; [9]): 50%; decrease of synaptosomal viability by the toxic agent alone (rat brain synaptosomes; [9]): 50% |
| 59 | 15 | 52 | CCOC(=O)c1cc(-c2ccc(Br)cc2)n(CCCC(=O)N/N=C/c2ccccc2)c1C [15a, (E)-Ethyl 1-(4-(2-benzylidenehydrazinyl)-4-oxobutyl)-5-(4-bromophenyl)-2-methyl-1H-pyrrole-3-carboxylate] | SI: hMAOB selectivity index = IC50(hMAOA)/IC50(hMAOB) [1]: >289; inhibition at 1 µM ([1]; 1 µM, vs control (pure hMAOB)): 50%; IC50 [1]: 0.692 µM; antioxidant effect vs Fe2+/AA (MDA production) (rat brain microsomes [2]): most prominent effect on MDA production; IC50 [6]: > 200 µM |
| 99 | 25 | 121 | CCOC(=O)c1cc(-c2ccc(Br)cc2)n(CCCC(=O)N/N=C/c2ccccc2O)c1C [15b, (E)-Ethyl 5-(4-bromophenyl)-1-(4-(2-(2-hydroxybenzylidene)hydrazinyl)-4-oxobutyl)-2-methyl-1H-pyrrole-3-carboxylate] | – |
| 110 | 25 | 132 | CCOC(=O)c1cc(-c2ccc(Br)cc2)n(CCCC(=O)N/N=C/c2ccccc2F)c1C [15c, (E)-Ethyl 5-(4-bromophenyl)-1-(4-(2-(2-fluorobenzylidene)hydrazinyl)-4-oxobutyl)-2-methyl-1H-pyrrole-3-carboxylate] | – |
| 57 | 10 | 63 | CCOC(=O)c1cc(-c2ccc(Br)cc2)n(CCCC(=O)N/N=C/c2cccc(F)c2)c1C [15d, (E)-Ethyl 5-(4-bromophenyl)-1-(4-(2-(3-fluorobenzylidene)hydrazinyl)-4-oxobutyl)-2-methyl-1H-pyrrole-3-carboxylate] | preservation of GSH level vs 6-OHDA (rat brain synaptosomes; [10]): 20%; preservation of synaptosomal viability vs 6-OHDA (rat brain synaptosomes; [10]): 15%; SI: hMAOB selectivity index = IC50(hMAOA)/IC50(hMAOB) [1]: >471; inhibition at 1 µM ([1]; 1 µM, vs control (pure hMAOB)): 60%; IC50 [1]: 0.425 µM; neuroprotective effect vs t-BuOOH (GSH level and MDA production) (rat brain mitochondria [7]): most pronounced neuroprotection; brain histology, in combination with rotenone ([8]; mice treated with rotenone plus 15d, light microscopy): preserved histoarchitectonics; brain histology, treated alone ([8]; mouse, in vivo): no microscopically visible changes; IC50 [6]: > 200 µM |
| 119 | 20 | 149 | CCOC(=O)c1cc(-c2ccc(Br)cc2)n(CCCC(=O)N/N=C/c2ccc(OC)cc2)c1C [15e, (E)-Ethyl 5-(4-bromophenyl)-1-(4-(2-(4-methoxybenzylidene)hydrazinyl)-4-oxobutyl)-2-methyl-1H-pyrrole-3-carboxylate] | – |
| 143 | 20 | 158 | CCOC(=O)c1cc(-c2ccc(Br)cc2)n(CCCC(=O)N/N=C/c2cccc(C=O)c2)c1C [15g, (E)-Ethyl 5-(4-bromophenyl)-1-(4-(2-(3-formylbenzylidene)hydrazinyl)-4-oxobutyl)-2-methyl-1H-pyrrole-3-carboxylate] | – |
| – | – | – | CCOC(=O)c1cc(-c2ccc(Br)cc2)n(CC(=O)NN)c1C [compound 11] | MAOB inhibition (MAOB): 26% |
| – | – | – | CCOC(=O)c1cc(-c2ccc(Br)cc2)n(CCC(=O)NN)c1C [compound 12] | MAOB inhibition (MAOB): 50% |
| 79 | 15 | 93 | CCOC(=O)c1cc(-c2ccc(Br)cc2)n(CCCC(=O)O)c1C [compound 13, 4-(5-(4-Bromophenyl)-3-(ethoxycarbonyl)-2-methyl-1H-pyrrole-1-yl)butanoic acid] | – |
| 73 | 25 | – | CCOC(=O)c1cc(-c2ccc(Br)cc2)n(CCCC(=O)NN)c1C [compound 15, Ethyl 5-(4-bromophenyl)-1-(4-hydrazinyl-4-oxobutyl)-2-methyl-1H-pyrrole-3-carboxylate] | – |
| – | – | – | C=C(C)[C@H]1Cc2c(ccc3c2O[C@@H]2COc4cc(OC)c(OC)cc4[C@@H]2C3=O)O1 [rotenone, reference compound] | brain histology, rotenone alone ([8]; cerebral cortex of mice treated with rotenone): distinct degenerative-necrotic changes |

| SMILES | increase of MDA production in brain mitochondria vs control (rat brain mitochondria [3]) [%] | decrease of GSH level in brain mitochondria vs control (rat brain mitochondria [4]) [%] | increase of MDA production in brain microsomes vs control (rat brain microsomes [5]) [%] | further results |
| --- | --- | --- | --- | --- |
| CCOC(=O)c1cc(-c2ccc(Br)cc2)n(CCCC(=O)N/N=C/c2ccc(N(C)C)cc2)c1C [15f, (E)-Ethyl 5-(4-bromophenyl)-1-(4-(2-(4-(dimethylamio)benzylidene)hydrazinyl)-4-oxobutyl)-2-methyl-1H-pyrrole-3-carboxylate] | 69 | 15 | 67 | SI: hMAOB selectivity index = IC50(hMAOA)/IC50(hMAOB) [1]: 1.16; hMAOB inhibitory effect (decrease of enzyme activity) ([1]; 1 µM, vs control (pure hMAOB)): 45%; IC50 [1]: 0.71 µM; hMAOA inhibitory effect (decrease of enzyme activity) ([6]; 1 µM, vs control (pure hMAOA)): 40%; IC50 [6]: 0.821 µM |
